Source: ChEMBL document CHEMBL4118122, “Identification and biological evaluation of thiazole-based inverse agonists of RORγt” (Bioorg Med Chem Lett, 2018)

Assays:
[1] = target: B2 bradykinin receptor (Homo sapiens) (UniProt P30411); assay: Displacement of [3H]bradykinin from human recombinant B2 receptor at 1 uM after 60 mins by scintillation counting analysis relative to control
[2] = target: Sodium-dependent noradrenaline transporter (Homo sapiens, UniProt P23975); assay: Displacement of [3H]nisoxetine from recombinant human norepinephrine transporter at 1 uM after 120 mins by scintillation counting analysis relative to control
Sequence of Sodium-dependent noradrenaline transporter (P23975 whole entry): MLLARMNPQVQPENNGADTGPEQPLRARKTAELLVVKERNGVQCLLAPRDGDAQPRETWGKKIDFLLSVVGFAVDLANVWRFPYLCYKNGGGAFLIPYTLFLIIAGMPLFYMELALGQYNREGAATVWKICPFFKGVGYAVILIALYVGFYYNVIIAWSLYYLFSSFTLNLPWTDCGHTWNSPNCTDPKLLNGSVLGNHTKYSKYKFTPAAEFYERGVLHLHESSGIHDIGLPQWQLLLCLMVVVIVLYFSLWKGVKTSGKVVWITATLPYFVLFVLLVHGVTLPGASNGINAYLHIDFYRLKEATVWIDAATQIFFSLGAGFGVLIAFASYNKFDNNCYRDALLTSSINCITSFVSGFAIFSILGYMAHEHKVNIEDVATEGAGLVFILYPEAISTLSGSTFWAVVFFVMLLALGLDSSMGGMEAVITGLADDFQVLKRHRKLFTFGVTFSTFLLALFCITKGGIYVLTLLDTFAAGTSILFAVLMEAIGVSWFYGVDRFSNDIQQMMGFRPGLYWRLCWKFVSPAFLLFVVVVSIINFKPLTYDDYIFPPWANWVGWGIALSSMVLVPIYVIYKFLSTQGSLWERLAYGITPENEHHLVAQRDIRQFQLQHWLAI

Mu-type opioid receptor = Mu-type opioid receptor (Homo sapiens, UniProt P35372); assay: Displacement of [3H]DAMGO from human recombinant mu receptor at 1 uM after 120 mins by scintillation counting analysis relative to control
[3] = target: Muscarinic acetylcholine receptor M3 (Homo sapiens, UniProt P20309); assay: Displacement of [3H]4-DAMP from human recombinant M3 receptor at 10 uM after 60 mins by scintillation counting analysis relative to control
Substance-K receptor = Substance-K receptor (Homo sapiens, UniProt P21452); assay: Displacement of [125I]NKA from human recombinant NK2 receptor after 60 mins by scintillation counting analysis
Histamine H2 receptor = Histamine H2 receptor (Homo sapiens, UniProt P25021); assay: Displacement of [125I]APT from human recombinant histamine H2 receptor after 120 mins by scintillation counting analysis
[4] = target: Cyclin-dependent kinase 5/CDK5 activator 1 (Homo sapiens) (UniProt Q00535+Q15078); assay: Inhibition of recombinant full length His-tagged human CDK5/p35 expressed in baculovirus expression system at 10 uM in presence of ATP relative to control
Sequence of Cyclin-dependent kinase 5/CDK5 activator 1 (Homo sapiens) (Q00535 whole entry): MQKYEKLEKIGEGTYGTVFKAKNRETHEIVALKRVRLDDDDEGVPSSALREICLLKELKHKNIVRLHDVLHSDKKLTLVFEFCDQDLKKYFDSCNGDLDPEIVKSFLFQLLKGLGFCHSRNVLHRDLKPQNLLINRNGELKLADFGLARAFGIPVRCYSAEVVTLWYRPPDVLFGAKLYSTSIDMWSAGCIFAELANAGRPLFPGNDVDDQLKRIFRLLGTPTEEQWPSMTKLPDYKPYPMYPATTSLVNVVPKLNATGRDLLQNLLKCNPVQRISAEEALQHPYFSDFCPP
Sequence of Cyclin-dependent kinase 5/CDK5 activator 1 (Homo sapiens) (Q15078 99-307 partner limits assumed): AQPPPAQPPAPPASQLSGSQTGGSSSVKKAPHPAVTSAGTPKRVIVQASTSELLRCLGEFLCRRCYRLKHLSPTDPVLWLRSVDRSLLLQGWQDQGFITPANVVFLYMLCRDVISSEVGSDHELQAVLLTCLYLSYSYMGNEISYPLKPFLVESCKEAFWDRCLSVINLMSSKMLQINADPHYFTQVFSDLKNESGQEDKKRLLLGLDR

[5] = target: Type-1 angiotensin II receptor (Homo sapiens) (UniProt P30556); assay: Displacement of [125I][Sar1,Ile8]-AT-II from human recombinant AT1 receptor at 1 uM after 120 mins by scintillation counting analysis relative to control
Sequence of Type-1 angiotensin II receptor (Homo sapiens) (P30556 whole entry): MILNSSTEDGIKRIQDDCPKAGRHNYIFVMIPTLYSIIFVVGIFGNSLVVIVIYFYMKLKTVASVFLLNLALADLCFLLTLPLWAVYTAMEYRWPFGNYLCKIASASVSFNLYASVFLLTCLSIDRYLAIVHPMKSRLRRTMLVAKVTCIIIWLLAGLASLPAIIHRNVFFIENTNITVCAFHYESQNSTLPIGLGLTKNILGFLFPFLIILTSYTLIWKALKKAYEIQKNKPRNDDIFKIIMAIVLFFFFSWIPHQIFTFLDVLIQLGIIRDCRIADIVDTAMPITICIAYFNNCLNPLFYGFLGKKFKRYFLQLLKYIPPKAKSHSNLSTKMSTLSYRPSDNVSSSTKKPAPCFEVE

Rattus norvegicus [6] = species: Rattus norvegicus; assay: Displacement of [125I]alpha-dendrotoxin from rat brain voltage-gated K channel at 10 uM after 60 mins by scintillation counting analysis relative to control
[7] = Thermodynamic solubility of the compound in 30 mM phosphate buffer at 10 mM at pH 2 after 2 to 5 days by UV-HPLC analysis; format: physicochemical; conditions: read-out: Therm_solubility
[8] = target: Small conductance calcium-activated potassium channel (Rattus norvegicus) (UniProt P70604+P70606+P70605); assay: Displacement of [125I]apamin from rat brain SkCa channel at 1 uM after 60 mins by scintillation counting analysis relative to control
[9] = target: Adrenergic receptor alpha-1 (Rattus norvegicus, UniProt P15823+P23944+P43140); assay: Displacement of [3H]-prazosin from rat alpha1 adrenoceptor after 60 mins by scintillation counting analysis; format: protein assay
[10] = Clearance in Sprague-Dawley rat at 1 mg/kg, iv; format: ADME, organism-based; conditions: in vivo
[11] = target: Adrenergic receptor alpha-1 (Rattus norvegicus) (UniProt P15823+P23944+P43140); assay: Displacement of [3H]-prazosin from rat alpha1 adrenoceptor at 10 uM after 60 mins by scintillation counting analysis relative to control; format: protein assay
[12] = target: 5-hydroxytryptamine receptor 5A (Homo sapiens, UniProt P47898); assay: Displacement of [3H]LSD from human recombinant 5-HT5a receptor after 120 mins by scintillation counting analysis
Sequence of 5-hydroxytryptamine receptor 5A (P47898 whole entry, the tested form may be a part): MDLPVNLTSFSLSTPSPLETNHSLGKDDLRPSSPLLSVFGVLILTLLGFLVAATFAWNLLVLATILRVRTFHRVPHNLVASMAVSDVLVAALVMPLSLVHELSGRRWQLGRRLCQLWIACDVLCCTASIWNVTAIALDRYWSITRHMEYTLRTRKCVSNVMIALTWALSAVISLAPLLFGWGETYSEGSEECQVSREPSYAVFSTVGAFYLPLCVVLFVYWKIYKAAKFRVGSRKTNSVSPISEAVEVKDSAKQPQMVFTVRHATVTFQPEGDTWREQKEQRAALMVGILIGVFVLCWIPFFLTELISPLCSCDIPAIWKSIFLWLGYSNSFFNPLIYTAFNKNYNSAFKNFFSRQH

[13] = target: Platelet-derived growth factor receptor beta (Homo sapiens) (UniProt P09619); assay: Inhibition of recombinant His-tagged human PDGFRbeta (558 to 1106 residues) cytoplasmic domain expressed in baculovirus expression system at 10 uM in presence of ATP relative to control
Sequence of Platelet-derived growth factor receptor beta (Homo sapiens) (P09619 whole entry, the tested form may be a part): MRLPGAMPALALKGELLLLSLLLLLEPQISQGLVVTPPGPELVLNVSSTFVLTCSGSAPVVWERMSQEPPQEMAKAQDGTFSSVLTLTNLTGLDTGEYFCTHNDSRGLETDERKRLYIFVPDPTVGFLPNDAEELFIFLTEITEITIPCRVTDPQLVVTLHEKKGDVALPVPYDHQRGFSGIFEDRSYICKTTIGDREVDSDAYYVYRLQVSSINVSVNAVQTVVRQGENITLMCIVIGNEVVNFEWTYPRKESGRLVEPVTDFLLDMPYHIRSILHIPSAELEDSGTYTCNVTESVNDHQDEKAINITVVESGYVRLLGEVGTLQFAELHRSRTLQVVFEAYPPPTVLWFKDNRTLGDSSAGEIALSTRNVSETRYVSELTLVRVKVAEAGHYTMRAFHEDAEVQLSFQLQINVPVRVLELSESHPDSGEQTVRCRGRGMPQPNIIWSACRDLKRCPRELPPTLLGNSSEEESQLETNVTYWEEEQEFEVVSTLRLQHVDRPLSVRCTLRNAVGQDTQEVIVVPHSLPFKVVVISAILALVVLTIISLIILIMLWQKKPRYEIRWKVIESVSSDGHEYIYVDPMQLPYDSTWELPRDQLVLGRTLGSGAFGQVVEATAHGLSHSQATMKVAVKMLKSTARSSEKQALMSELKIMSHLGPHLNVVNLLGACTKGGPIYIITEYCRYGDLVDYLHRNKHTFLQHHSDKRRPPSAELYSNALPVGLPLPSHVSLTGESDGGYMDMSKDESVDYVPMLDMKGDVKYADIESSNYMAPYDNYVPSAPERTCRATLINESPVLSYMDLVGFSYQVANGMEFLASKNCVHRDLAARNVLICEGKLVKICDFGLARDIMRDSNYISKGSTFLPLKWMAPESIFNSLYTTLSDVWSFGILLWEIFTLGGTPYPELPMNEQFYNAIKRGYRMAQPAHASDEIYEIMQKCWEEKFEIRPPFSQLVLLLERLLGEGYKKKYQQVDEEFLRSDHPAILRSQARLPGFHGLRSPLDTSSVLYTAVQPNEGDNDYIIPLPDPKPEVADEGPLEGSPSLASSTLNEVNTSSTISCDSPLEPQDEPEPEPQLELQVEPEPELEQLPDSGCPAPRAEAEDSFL

[14] = target: Galanin receptor type 2 (Homo sapiens) (UniProt O43603); assay: Displacement of [125I]-endothelin-1 from human recombinant GAL2 receptor at 1 uM after 120 mins by scintillation counting analysis relative to control
Sequence of Galanin receptor type 2 (Homo sapiens) (O43603 whole entry): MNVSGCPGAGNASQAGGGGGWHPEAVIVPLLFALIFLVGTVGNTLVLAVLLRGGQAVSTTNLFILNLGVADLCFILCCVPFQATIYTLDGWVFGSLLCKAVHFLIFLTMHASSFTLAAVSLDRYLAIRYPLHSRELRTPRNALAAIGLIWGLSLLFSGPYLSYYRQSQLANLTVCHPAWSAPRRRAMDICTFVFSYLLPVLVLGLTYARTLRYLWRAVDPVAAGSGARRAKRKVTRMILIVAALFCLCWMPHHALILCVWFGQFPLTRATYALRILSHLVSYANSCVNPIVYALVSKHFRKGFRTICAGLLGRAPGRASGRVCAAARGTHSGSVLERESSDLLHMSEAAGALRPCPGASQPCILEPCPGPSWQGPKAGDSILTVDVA

Rattus norvegicus [15] = species: Rattus norvegicus; assay: Displacement of [3H]batrachotoxinin from rat brain voltage gated sodium ion channel site 2 at 1 uM after 60 mins by scintillation counting analysis relative to control
Rattus norvegicus [16] = species: Rattus norvegicus; assay: Displacement of [3H]flunitrazepam from rat brain central BZD at 10 uM after 60 mins relative to control
[17] = target: G protein-coupled receptor kinase 4 (Homo sapiens) (UniProt P32298); assay: Inhibition of recombinant human full length GST-tagged GRK4 expressed in baculovirus expression system at 10 uM in presence of ATP relative to control
[18] = target: Neuropeptide Y receptor type 1 (Homo sapiens) (UniProt P25929); assay: Displacement of [125I]peptide YY from human Y1 receptor at 1 uM after 120 mins by scintillation counting analysis relative to control
Sequence of Neuropeptide Y receptor type 1 (Homo sapiens) (P25929 whole entry, the tested form may be a part): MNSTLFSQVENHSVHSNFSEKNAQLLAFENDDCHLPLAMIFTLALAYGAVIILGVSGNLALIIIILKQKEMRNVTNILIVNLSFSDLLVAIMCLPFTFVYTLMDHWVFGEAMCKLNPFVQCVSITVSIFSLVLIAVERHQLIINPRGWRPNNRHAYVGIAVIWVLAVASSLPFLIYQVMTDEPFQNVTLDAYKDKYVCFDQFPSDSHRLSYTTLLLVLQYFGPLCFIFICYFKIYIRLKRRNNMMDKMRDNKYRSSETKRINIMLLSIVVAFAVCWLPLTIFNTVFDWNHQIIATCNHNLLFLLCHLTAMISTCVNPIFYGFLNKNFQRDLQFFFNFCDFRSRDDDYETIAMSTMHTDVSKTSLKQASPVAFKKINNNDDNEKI

[19] = target: Insulin receptor (Homo sapiens) (UniProt P06213); assay: Inhibition of recombinant His-tagged human InsR (1011 to 1382 residues) expressed in baculovirus expression system at 10 uM in presence of ATP relative to control
[20] = target: 5-hydroxytryptamine receptor 3A (Homo sapiens) (UniProt P46098); assay: Displacement of [3H]BRL 43694 from human recombinant 5-HT3 receptor at 1 uM after 120 mins by scintillation counting analysis relative to control
Sequence of 5-hydroxytryptamine receptor 3A (Homo sapiens) (P46098 whole entry): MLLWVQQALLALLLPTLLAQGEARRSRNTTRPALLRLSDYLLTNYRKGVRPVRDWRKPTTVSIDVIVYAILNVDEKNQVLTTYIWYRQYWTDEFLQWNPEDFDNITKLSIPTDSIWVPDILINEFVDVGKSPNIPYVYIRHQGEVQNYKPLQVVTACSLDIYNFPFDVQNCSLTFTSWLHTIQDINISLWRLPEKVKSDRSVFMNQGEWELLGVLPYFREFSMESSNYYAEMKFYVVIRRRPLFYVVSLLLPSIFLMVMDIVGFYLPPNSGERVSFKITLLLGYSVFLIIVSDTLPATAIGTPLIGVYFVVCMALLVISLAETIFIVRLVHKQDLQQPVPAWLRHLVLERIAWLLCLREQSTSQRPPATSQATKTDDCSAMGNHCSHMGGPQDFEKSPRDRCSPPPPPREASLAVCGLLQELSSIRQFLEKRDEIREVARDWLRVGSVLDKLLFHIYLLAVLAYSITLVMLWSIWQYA

Cytochrome P450 3A4 = Cytochrome P450 3A4 (Homo sapiens, UniProt P08684); assay: Inhibition of CYP3A4 (unknown origin); format: ADME
Somatostatin receptor = assay: Displacement of [125I]Tyr11-somatostatin-14 from mouse SST receptor after 60 mins by scintillation counting analysis; format: protein assay
[21] = target: Neuropeptide Y receptor type 2 (Homo sapiens, UniProt P49146); assay: Displacement of [125I]peptide YY from human Y2 receptor after 120 mins by scintillation counting analysis
Sequence of Neuropeptide Y receptor type 2 (P49146 whole entry): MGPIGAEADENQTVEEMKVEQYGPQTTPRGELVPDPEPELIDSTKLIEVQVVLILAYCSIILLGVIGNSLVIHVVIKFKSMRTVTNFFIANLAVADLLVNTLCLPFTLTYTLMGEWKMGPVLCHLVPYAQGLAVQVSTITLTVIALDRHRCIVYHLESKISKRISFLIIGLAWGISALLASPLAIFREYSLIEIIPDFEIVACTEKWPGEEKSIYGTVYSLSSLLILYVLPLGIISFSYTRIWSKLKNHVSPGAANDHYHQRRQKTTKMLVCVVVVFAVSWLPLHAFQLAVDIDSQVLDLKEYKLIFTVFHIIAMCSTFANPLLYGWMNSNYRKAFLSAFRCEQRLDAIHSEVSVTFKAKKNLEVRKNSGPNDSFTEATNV

Rattus norvegicus [22] = species: Rattus norvegicus; assay: Binding affinity to rat GABA receptor at 1 uM after 60 mins by agonist radioligand binding assay relative to control
Cytochrome P450 1A2 = target: T1, Cytochrome P450 1A2 (Homo sapiens, UniProt P05177); assay: Inhibition of CYP1A2 (unknown origin); format: ADME
T1 sequence (P05177 whole entry): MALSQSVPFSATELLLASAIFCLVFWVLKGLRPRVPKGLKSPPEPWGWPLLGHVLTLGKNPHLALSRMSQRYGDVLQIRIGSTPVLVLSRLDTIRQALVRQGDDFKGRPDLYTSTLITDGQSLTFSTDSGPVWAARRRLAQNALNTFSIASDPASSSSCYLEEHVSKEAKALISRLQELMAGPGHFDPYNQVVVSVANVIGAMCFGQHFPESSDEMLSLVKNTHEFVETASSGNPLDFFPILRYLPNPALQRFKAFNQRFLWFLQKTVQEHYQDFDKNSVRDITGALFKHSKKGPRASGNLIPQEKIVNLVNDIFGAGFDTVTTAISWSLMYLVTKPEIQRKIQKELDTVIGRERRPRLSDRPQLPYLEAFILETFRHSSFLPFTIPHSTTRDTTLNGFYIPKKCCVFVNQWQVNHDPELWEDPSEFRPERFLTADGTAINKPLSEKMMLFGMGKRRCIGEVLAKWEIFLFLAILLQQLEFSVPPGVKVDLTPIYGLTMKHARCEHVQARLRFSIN

[23] = target: Muscarinic acetylcholine receptor M1 (Homo sapiens) (UniProt P11229); assay: Displacement of […] from human recombinant M1 receptor at 1 uM after 60 mins by scintillation counting analysis relative to control

Sequence of B2 bradykinin receptor (Homo sapiens) (P30411 whole entry): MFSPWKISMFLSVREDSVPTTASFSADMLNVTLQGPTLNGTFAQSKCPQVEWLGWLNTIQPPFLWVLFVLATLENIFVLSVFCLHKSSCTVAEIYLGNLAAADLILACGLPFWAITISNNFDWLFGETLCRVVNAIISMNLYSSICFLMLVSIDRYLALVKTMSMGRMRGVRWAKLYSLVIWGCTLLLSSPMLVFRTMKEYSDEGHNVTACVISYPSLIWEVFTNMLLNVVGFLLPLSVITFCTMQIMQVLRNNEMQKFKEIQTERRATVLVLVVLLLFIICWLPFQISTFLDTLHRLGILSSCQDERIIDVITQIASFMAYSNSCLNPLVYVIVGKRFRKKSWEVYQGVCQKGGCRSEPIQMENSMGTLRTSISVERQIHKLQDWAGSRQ

CC(C)(C)NS(=O)(=O)c1ccc(-c2sc(C(=O)N[C@H]3C[C@H](C(=O)O)C3)nc2CC2CCCCC2)c2ccccc12
inhibition [1]: < 10% | inhibition [2]: < 10% | inhibition (Mu-type opioid receptor): < 10% | inhibition [3]: 23% | IC50 (Substance-K receptor): 1.2 nM | IC50 (Histamine H2 receptor): 142 nM | inhibition [4]: -4% | inhibition [5]: < 10% | inhibition (Rattus norvegicus [6]): < 10% | solubility thermodynamic at 10000 µM [7]: < 1 µM | inhibition [8]: < 10% | IC50 [9]: 0.25 nM | clearance [10]: 51.4 mL/min/kg | inhibition [11]: < 10% | IC50 [12]: 106 nM | inhibition [13]: -4% | inhibition [14]: < 10% | inhibition (Rattus norvegicus [15]): < 10% | inhibition (Rattus norvegicus [16]): < 10% | inhibition [17]: -3% | inhibition [18]: < 10% | inhibition [19]: -4% | inhibition [20]: < 10% | INH (Cytochrome P450 3A4): > 10 µM | IC50 (Somatostatin receptor): 0.31 nM | IC50 [21]: 0.28 nM | inhibition (Rattus norvegicus [22]): < 10% | INH (Cytochrome P450 1A2): > 10 µM | inhibition [23]: < 10%
